The text below walks through data of patent US5734081A, “Arylthio compounds” (Warner-Lambert Company, priority 1995, dated 1998).

Structures are written as SMILES.

Data set [1] deals with T1, HIV-1 Nucleocapsid Protein (NCp7) (Human immunodeficiency virus type 1 group M subtype B, UniProt P12493).
T1 construct: The NCp7 protein containing 2 Zn-fingers and 2 Zn ions is incubated with drug
Briefly: Zinc extrusion assay (TSQ fluorescence) from the zinc fingers of HIV-1 nucleocapsid protein (NCp7). Conditions: 10 μM compound, 2.8 μM NCp7, pH 7.4, 26° C., 90 minutes. The class given is biochemical. An excerpt:
The compounds of the present invention cause the extrusion of zinc from the nucleocapsid protein (NCp7) of HIV-1. The NC protein is highly conserved among all retroviruses (South T., Blake P., et al., Biochemistry, 1990;29:7786) and is essential for viral infectivity (Aldovini A. and Young R., J. Virology, 1990;64:1920 and Gorelick R., Nigida S., et al., J. Virology, 1990;64:3207). The zinc is normally held in NC proteins by 1 or 2 zinc fingers. In the case of HIV-1, 2 zinc fingers are present (Summers M., South T., et al., Biochemistry, 1990;29:329) and are involved specifically with the PSI site on viral RNA which controls the packaging of viral RNA. Interference of this packaging causes the formation of non-infectious virions (Dannull J., Surovoy A., et al., EMBO, 1994;13:1525). It has previously been shown that compounds that cause zinc extrusion have potent anti-HIV activity in multiple cell lines and against all retroviruses (Rice W., Schaeffer C., et al., Nature, 1993;361:473).
A fluorescence-based assay has been developed to monitor the ejection of zinc from purified HIV-1 NCp7. The fluorophore, N-(6-methoxy-8-quinolyl)-p-toluenesulfonamide (TSQ), has an increased fluorescent signal upon bonding zinc ion in solution. The NCp7 protein containing 2 Zn-fingers and 2 Zn ions is incubated with drug causing the extrusion of Zn ions. The released Zn is then sequestered by the TSQ and the increased fluorescence monitored relative to control. […] Fluorescence (excitation 355 nm emission 400 nm) was monitored versus time. Controls were the NCp7 under assay conditions without drug, and apo NCp7 (no Zn) with drug. The % Zn extrusion was calculated based on the actual fluorescence measured divided by the fluorescence of all theoretical Zn extruded (5.6 μM)×100.
Table 1 below presents data for several invention compounds evaluated in the zinc extrusion assay described above.

Data set [2] relates to HIV-1. In words: CEM cell assay, anti-HIV-1 activity. The class given is cell-based. Conditions: Human immunodeficiency virus 1, CCRF-CEM, HIV-1, 6 or 7 days, read-out: EC50 (Effective Concentration which protects cells from viral cytopathic effects). The source says:
The test systems utilized to establish the antiviral activity of the arylthio compounds of this invention are well recognized in the art and are routinely employed for such purpose. For example, the assay utilized to evaluate the compounds activity against the HIV virus is that employed by the U.S. National Cancer Institute as described by Weislow O. S., et al., J. Natl. Cancer Inst., 1989;81:577-586, incorporated herein by reference.
The procedure is designed to detect agents acting at any stage of the virus reproductive cycle. The assay basically involves the killing of T4 lymphocytes by HIV. Small amounts of HIV are added to cells, and at least two complete cycles of virus reproduction are necessary to obtain the required cell killing. Agents which interact with virions, cells, or virus gene-products to interfere with viral activities will protect cells from cytolysis. The system is automated in several features to accommodate large numbers of candidate agents, and is generally designed to detect anti-HIV activity. However, compounds which degenerate or are rapidly metabolized in the culture conditions may not show activity in this screen.
(§1) Yet another test system employed to determine antiviral activity is called the CEM cell assay.
(§2) T4 lymphocytes (CEM cell line) are exposed to HIV at a virus to cell ratio approximately 0.05, and plated along with noninfected control cells in 96-well microliter plates.
(§3) The candidate agent is dissolved in dimethyl sulfoxide (unless otherwise noted), then diluted 1:200 in cell culture medium. Further dilutions (half-log10) are prepared before adding to an equal volume of medium containing either infected or noninfected cells. Cultures are incubated at 37° in a 5% carbon dioxide atmosphere for 6 or 7 days. The tetrazolium salt, XTT, is added to all wells, and cultures are incubated to allow formazan color development by viable cells (J. National Cancer Institute, 1989;81:577-586). Individual wells are analyzed spectrophotometrically to quantitate formazan production, and in addition are viewed microscopically for detection of viable cells confirmation of protective activity.
(§4) Drug-tested virus-infected cells are compared with drug-treated noninfected cells and with other appropriate controls (untreated infected and untreated noninfected cells, drug-contain wells without cells, etc.) on the same plate. Data are reviewed in comparison with other tests done at the same time and a determination about activity is made.

The nature of data set [3]: CEM cell growth inhibition (XTT, noninfected cells). The class given is cell-based. Conditions: human, CEM Cell Assay, drug alone, read-out: IC50 (Inhibitory Concentration where drug alone inhibits cell growth). The protocol:
as §1, §2, §3, §4

In data set [4] the test system is HIV-1. Briefly: HIV H9 cell assay, anti-HIV-1 activity. The class given is cell-based. Conditions: Human immunodeficiency virus 1, H9, 168 h, read-out: EC50 (Effective Concentration which protects cells from viral cytopathic effects). An excerpt: Another test system utilized to evaluate the invention compounds is called HIV H9 assay. The HIV H9 cell assay measures the inhibitor concentration required to suppress HIV-1 virus replication. In this system, viral growth occurs through multiple rounds of the life-cycle. Any suppression of the replication kinetics results in a geometric decrease in virus production. As a result, this assay is a sensitive means of measuring the ability of a compound to inhibit HIV-1 viral replication.
(§5) The H9 T-cell line is batch infected with HIV virus at an M0I of 0.01. After 2 hours absorption, the cells are washed, resuspended in RPMI-1640/10% fetal calf serum, and seeded at […] of a 96-well plate. A duplicate plate of uninfected H9 cells is prepared for the cytotoxicity assay. Drugs are serially diluted 1/3.16 in DMSO, transferred to media at an 8× concentration, and then added to the cultures in triplicate. The final DMSO concentration of 0.002 (0.2%).
(§6) Viral production is measured by RT assay and cytotoxicity is measured by XTT assay at 7 days post-infection. The RT assay is performed as a modification of Borroto-Esoda and Boone, J. Virol., 1991;65:1952-1959 and quantitated using a Molecular Dynamics Phosphoimager with Imagequant software. The XTT assay is performed as a modification of Roehm, et al., J. Immuno. Methods., 1991;142:257-265 and quantitated using a molecular Devices Thermomax plate reader with Softmax software.
(§7) Data is electronically transferred to a Microsoft Excell spreadsheet for analysis. The RT assay values equivalent to 50% and 90% inhibition of virus production are calculated from the untreated controls. The concentrations of inhibitor required to produce these values (IC50 and IC90) are interpolated from data points flanking these RT activities. The XTT assay values equivalent to 50% cytotoxicity are calculated from the untreated controls. The concentrations of inhibitor required to produce this value are interpolated from data points flanking these XTT values.

Data set [5] in a line: H9 cell cytotoxicity (XTT assay, uninfected cells). The conditions noted are these: human, drug alone, read-out: IC50 (Inhibitory Concentration where drug alone inhibits cell growth). The class given is cell-based. As for the experimental part:
as §5, §6, §7

On to `CN(C(=O)c1ccccc1SSc1ccccc1C(=O)N(C)c1ccc(S(N)(=O)=O)cc1)c1ccc(S(N)(=O)=O)cc1` [Example 142], for which the “% Zinc Extrusion Relative to Control” value in data set [1] is 84%. Further, the EC50 in data set [2] is 17 µM. The CC50 in data set [3] is > 100 µM.
For `O=C(N[C@@H](C(=O)O)c1ccccc1)c1ccccc1SSc1ccccc1C(=O)N[C@@H](C(=O)O)c1ccccc1` [Example 68, [R-(R*,R*)] (2-{2-[(Carboxy-phenyl-methyl)-carbamoyl]phenyldisulfanyl}-benzoylamino)-phenyl-acetic acid] the same measures were 89%, 25 µM and > 100 µM.
For `NC(=O)c1cc(NC(=O)c2ccccc2)ccc1SSc1ccc(NC(=O)c2ccccc2)cc1C(N)=O` [Example 75, 2,2'-Dithiobis[5-(benzoylamino)-benzamide]] the same measures were 52%, 5.3 µM and 59 µM.
For `NC(=O)c1cc(NC(=O)C(F)(F)F)ccc1SSc1ccc(NC(=O)C(F)(F)F)cc1C(N)=O` [Example 74] the same measures were 59%, 6.3 µM and 67 µM.
For the molecule `CC(=O)N[C@@H](CSSc1ccccc1C(=O)Nc1ccc(S(N)(=O)=O)cc1)C(=O)O` [Example 134, 2-Acetylamino-3-[2-(4-sulfamoylphenylcarbamoyl)phenyldisulfanyl]-propionic acid], the “% Zinc Extrusion Relative to Control” value in data set [1] stood at 77%. Further, the EC50 in data set [2] came out at 6.9 µM. Also, the CC50 in data set [3] is > 100 µM.
Take `O=C(Nc1ccc(S(=O)(=O)Nc2ncccn2)cc1)c1ccccc1SSc1ccccc1C(=O)Nc1ccc(S(=O)(=O)Nc2ncccn2)cc1` [Example 15, 2,2'-Dithiobis[N-[4-[(2-pyrimidinylamino)sulfonyl]phenyl]-benzamide]]: the “% Zinc Extrusion Relative to Control” value in data set [1] is given as 72%. The EC50 in data set [4] was determined as 2 µM. Besides, in data set [5], the CC50 at 168 h was found to be 22 µM.
For `CC(SSc1ccccc1C(=O)Nc1ccc(S(N)(=O)=O)cc1)C(=O)O` (centres unmarked) [Example 132, 2-[2-(4-Sulfamoylphenylcarbamoyl)phenyldisulfanyl]propionic acid], the “% Zinc Extrusion Relative to Control” value in data set [1] is reported as 70%. Besides, the EC50 in data set [2] came to 2.8 µM. In addition, the CC50 in data set [3] was > 100 µM.
For `COC(=O)[C@H](CSSc1ccccc1C(=O)Nc1ccc(S(N)(=O)=O)cc1)NC(C)=O` [Example 133, 2-Acetylamino-3-[2-(4-sulfamoylphenylcarbamoyl)phenyldisulfanyl]-propionicacid, methyl ester] the same measures were 53%, 6.7 µM and 69 µM.
`O=C(O)Cc1ccc(NC(=O)c2ccccc2SSc2ccccc2C(=O)Nc2ccc(CC(=O)O)cc2)cc1` [Example 108, (4-{2-[2-(4-Carboxymethyl-phenylcarbamoyl)-phenyldisulfanyl]-benzoylamino}-phenyl)-acetic acid]: the EC50 in data set [2] was determined as 5.9 µM. In data set [3], the CC50 was 61 µM.
For the molecule `COC(=O)[C@H](N)C(C)(C)SSc1ccccc1C(=O)Nc1ccc(S(N)(=O)=O)cc1` [Example 139, 2-Amino-3-methyl-3-[2-(4-sulfamoylphenylcarbamoyl)phenyldisulfanyl]-butyric acid, methyl ester], the “% Zinc Extrusion Relative to Control” value in data set [1] is on record as 70%. Besides, the EC50 in data set [2] was 6.9 µM. In addition, the CC50 in data set [3] is > 100 µM.
Turning to `COC(=O)c1ccccc1SSc1ccccc1C(=O)Nc1ccc(S(N)(=O)=O)cc1` [Example 137, 2-[2-(4-Sulfamoylphenylcarbamoyl)phenyldisulfanyl]benzoic acid, methyl ester], the EC50 in data set [2] amounted to 8.6 µM. For the same molecule, the CC50 in data set [3] came to 65 µM.
For `NS(=O)(=O)c1cc(Cl)ccc1SSc1ccc(Cl)cc1S(N)(=O)=O` [Example 148, 2,2'-Dithiobis[5-chloro]-benzenesulfonamide], the “% Zinc Extrusion Relative to Control” value in data set [1] is on record as 92%. Further, the EC50 in data set [2] was 12 µM. In addition, in data set [3], the CC50 turned out to be 30 µM.
For the molecule `NS(=O)(=O)c1ccc(CNC(=O)c2ccccc2SSc2ccccc2C(=O)NCc2ccc(S(N)(=O)=O)cc2)cc1` [Example 12, 2,2'-Dithiobis[N-[[4-(aminosulfonyl)phenyl]methy]benzamide]], the “% Zinc Extrusion Relative to Control” value in data set [1] worked out at 27%. Moreover, the EC50 in data set [2] was 0.59 µM. For the same molecule, in data set [3], the CC50 was determined as 21 µM.
Regarding `CC(=O)Nc1ccc(S)c(C(N)=O)c1` [Example 10, 5-Acetylamino-2-thiobenzamide], in data set [4], the EC50 was 5.4 µM. The CC50 at 168 h in data set [5] was > 100 µM.
Turning to `NS(=O)(=O)c1ccc(NC(=O)c2ccc(F)cc2SSc2cc(F)ccc2C(=O)Nc2ccc(S(N)(=O)=O)cc2)cc1` [Example 16, 2,2'-Dithiobis[N-[4-(aminosulfonyl)phenyl]-4-fluorobenzamide]], the EC50 in data set [2] is 2.5 µM. For the same molecule, in data set [3], the CC50 is 66 µM.
Take `CC(SSc1ccccc1C(=O)Nc1ccc(S(N)(=O)=O)cc1)C(=O)NCC(=O)O` (centres unmarked) [Example 135, {2-[2-(4-Sulfamoylphenylcarbamoyl)phenyldisulfanyl]propionylamino}-acetic acid]: the “% Zinc Extrusion Relative to Control” value in data set [1] was found to be 40%. For the same molecule, the EC50 in data set [2] is 5.8 µM. Moreover, the CC50 in data set [3] was > 100 µM.
In the same order, the values of `O=C(O)CCNC(=O)c1ccccc1SSc1ccccc1C(=O)NCCC(=O)O` [Example 76, 3,3'-[Dithiobis(2,1-phenylenecarbonylimino)]bis-propionic acid] are 82%, 6.2 µM and > 100 µM.
